Eleven compounds from patent US5854004A, “Process for screening substances capable of modulating a receptor-dependent cellular signal transmission path” (Boehringer Ingleheim GmbH, priority 1991, dated 1998) can be followed below.

The target of data set [1] is T1, human neurokinin 2-receptor (Homo sapiens, UniProt P21452).
T1 sequence (P21452 1-398): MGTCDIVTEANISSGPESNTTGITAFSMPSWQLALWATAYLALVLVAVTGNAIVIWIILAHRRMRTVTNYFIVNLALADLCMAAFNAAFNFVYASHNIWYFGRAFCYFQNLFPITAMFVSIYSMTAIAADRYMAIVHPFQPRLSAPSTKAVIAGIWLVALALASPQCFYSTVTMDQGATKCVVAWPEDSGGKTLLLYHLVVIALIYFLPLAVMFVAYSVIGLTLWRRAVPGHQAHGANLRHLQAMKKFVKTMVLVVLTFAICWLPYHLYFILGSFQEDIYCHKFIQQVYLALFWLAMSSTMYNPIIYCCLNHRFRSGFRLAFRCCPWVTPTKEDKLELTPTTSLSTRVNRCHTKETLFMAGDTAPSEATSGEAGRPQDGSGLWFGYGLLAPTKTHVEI
Briefly: Luciferase activity in NK2-test cell line A20/NK2-122. How it is done:
(§1) 15-20 days after transfection, individual cell clones were transferred into 96-well microtitre plates and further cultivated. […] Approximately 40,000 cells in each clone were sown, in a procedure repeated 6 times, in 200 μl per well of a light-impervious 96-well microtitre plate coated with tissue culture (Microlite™, Dynatech Laboratories) and incubated overnight at 37° C. Three mixtures were treated with 10 ng TPA/ml and incubated for a further 8 hours. Then the medium was removed and the cells were washed twice with PBS.
This Example illustrates the preparation of a test cell line for the human neurokinin 2 (NK2)-receptor which is coupled to the phospholipase C-signal transduction pathway. This test cell line makes it possible, by measurement of the luciferase activity, to identify substances which modulate the intracellular IP3 /DAG concentrations, depending on the receptor.
(§2) The pretest cell line A20 was transfected, as described under a), by electroporation with the plasmid pAHyg-NK2, which had previously been linearised with BglII. From the day after transfection onwards, the cells were grown in selection medium, as used for the cell line A20 and additionally enriched with 150 μg/ml hygromycin B (Sigma). Individual clones were tested for inducibility of the luciferase activity as described under a).

Data set [2] concerns the target T2, human dopamine D1-receptor (Homo sapiens, UniProt P21728). Briefly: Induction of pADneo2-C6-BGL (CRE) via dopamine-D1-receptor in co-transfected COS-7 cells.
A further data set concerns cell line CHO C6-13. Briefly: Luciferase expression in CRE-pretest cell line CHO C6-13. Particulars: 3 hours treatment, FIG. 33. How it is done:
The transfection by electroporation was carried out as follows: after removal of the medium the cells were detached from the surface by means of a trypsin/PBS solution, suspended in medium and pelleted for 5 minutes at 250×g. The cells were washed in HBS (10 mM HEPES pH 7.4, 150 mM NaCl) and pelleted by centrifuging. The cells were suspended in HBS in a density of 1×10^7 cells/ml. 0.8 ml of cell suspension were mixed with 20 μg of DNA of the plasmid pADneo2-C6-BGL linearised with ScaI and transferred into an electroporation dish. […] After the electroporation the cells were diluted in the medium mentioned above, 20,000 cells per 90 mm culture dish was sown and incubated overnight at 37° C.
Two batches of each were treated with 20 μM forskolin and incubated for a further 5 hours at 37° C. Then the medium was removed from all the cells and the cells were washed with PBS.
Cells of the cell line CHO C6-13 were treated for 3 hours with various substances which alter the intracellular concentration of cAMP or IP3 /DAG or simulate a change in concentration, and also treated with receptor-specific agonists which influence the above-mentioned signal transduction mechanisms.

In data set [3] the target is T2, human dopamine D1-receptor. Briefly: Luciferase activity in dopamine D1-receptor test cell line CHO 13D1-38. How it is done: The cell line CHO C6-13 characterised above was transfected, as described under a), by electroporation with plasmid pAD-CMV2:D1, which had previously been linearised with FspI.
For the use of test cell lines in an automatic screening system with a high throughput rate it is advantageous to use microtitre plates having 96 wells per plate. For this purpose, 60,000 cells (CHO C6-13 or CHO 13D1-38) were sown in 200 μl medium per well in light-impermeable microtitre plates coated with tissue culture
(Microlite™, Dynatech Labroatories) and incubated overnight at 37° C. Then various chemicals were added to the cells and they were incubated for a certain length of time (usually 3 hours). After removal of the medium the cells were washed with PBS, lysed in 1% Triton X-100 and the luciferase activity was measured in a 96-well luminometer (ML-1000, Dynatech) (FIG. 36).
In order to simulate a screening process in which the test substances are preferably supplied in a uniform solvent, a final concentration of 1% DMSO was used in this experiment.

In data set [4] the target is T2, human dopamine D1-receptor. The data set can be described thus: Induction of pBHluc1.3 (TRE) via dopamine-D1-receptor in co-transfected COS-7 cells. It is filed as cell-based. The note with it: 10 ng/ml TPA or 1 μM apomorphine, 18 h.
Data set [5] has as its target T3, human 5HT2-receptor (Homo sapiens, UniProt P28223). Briefly: Induction of pBHluc1.3 (TRE) via 5-HT2-receptor in co-transfected COS-7 cells. It is filed as cell-based. How it is done: (§3) Induction was carried out with i) 20 μM forskolin (Sigma P8139), ii) 10 μα-methylserotonin-maleate (RBI M-110), and iii) 10 μα-methylserotonin-maleate and 10 μM ketanserin-tartrate (RBI S-006). […] It follows, from the above results, that, depending on 5-HT2 -receptors, only regulation elements which respond to IP3 /DAG (TRE), but not regulation elements which respond to cAMP (CRE) are selectively activated.

The subject of the next data set is cell line A20. The data set can be described thus: Luciferase induction in stable TRE-pretest cell line A20 (A549, pBHluc1.3). Particulars: A20, no receptor DNA. How it is done: In order to produce a stable (pre-)test cell line for substances which influence the expression of the luciferase gene by direct or receptor-mediated modulation of the IP3 /DAC-signal transduction pathway, A549 cells were simultaneously transfected with the plasmid pBHluc1.3 and the selection plasmid pRSVneo by electroporation as follows: after removal of the medium the cells were detached from the surface by means of a trypsin/PBS solution, suspended in medium and sedimented for 5 minutes at 250×g. […] 0.8 ml of cell suspension were combined with 20 μg of pBHluc1.3 and 2 μg of pRSVneo. Both plasmids had previously been linearised with BamHI.
as §1, §2

The target in data set [6] is T3, human 5HT2-receptor. The data set can be described thus: cell-based. From the text:
The human 5HT2-receptor is another example of a receptor coupled to the phospholipase C-signal transduction pathway. The TRE-cell line A20 is therefore also suitable in this case as a starting cell line for establishing a test cell line in order to discover substances which modulate the activity of the 5HT2-receptor.
The plasmid pAHyg-5HT2, linearised with BglII, was for this purpose transfected into the cell line A20 by electroporation as described under a) and grown in selection medium.
For this purpose the cells were simultaneously treated with a constant amount of serotonin (1 μg) and increasing amounts of antagonist.

Data set [7] concerns the target T3, human 5HT2-receptor. Briefly: Induction of pADneo2-C6-BGL (CRE) via 5-HT2-receptor in co-transfected COS-7 cells. It is filed as cell-based. The note with it: 20 μM forskolin or 10 μ α-methylserotonin-maleate. How it is done: as §3

Where no end group is shown, it is not given here.

T3 sequence (P28223 whole entry): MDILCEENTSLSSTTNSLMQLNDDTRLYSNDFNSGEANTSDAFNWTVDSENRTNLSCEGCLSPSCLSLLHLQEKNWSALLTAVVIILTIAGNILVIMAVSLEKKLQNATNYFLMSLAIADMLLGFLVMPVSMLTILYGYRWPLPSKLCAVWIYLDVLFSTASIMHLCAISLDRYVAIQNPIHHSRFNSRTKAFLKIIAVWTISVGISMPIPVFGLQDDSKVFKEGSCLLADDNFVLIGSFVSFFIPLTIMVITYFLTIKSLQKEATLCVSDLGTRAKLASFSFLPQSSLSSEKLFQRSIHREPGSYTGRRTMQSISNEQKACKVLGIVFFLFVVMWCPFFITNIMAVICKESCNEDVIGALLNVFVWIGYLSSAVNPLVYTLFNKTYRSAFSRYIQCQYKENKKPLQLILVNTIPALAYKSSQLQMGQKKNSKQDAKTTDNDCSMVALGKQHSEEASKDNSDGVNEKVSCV
T2 sequence (P21728 whole entry): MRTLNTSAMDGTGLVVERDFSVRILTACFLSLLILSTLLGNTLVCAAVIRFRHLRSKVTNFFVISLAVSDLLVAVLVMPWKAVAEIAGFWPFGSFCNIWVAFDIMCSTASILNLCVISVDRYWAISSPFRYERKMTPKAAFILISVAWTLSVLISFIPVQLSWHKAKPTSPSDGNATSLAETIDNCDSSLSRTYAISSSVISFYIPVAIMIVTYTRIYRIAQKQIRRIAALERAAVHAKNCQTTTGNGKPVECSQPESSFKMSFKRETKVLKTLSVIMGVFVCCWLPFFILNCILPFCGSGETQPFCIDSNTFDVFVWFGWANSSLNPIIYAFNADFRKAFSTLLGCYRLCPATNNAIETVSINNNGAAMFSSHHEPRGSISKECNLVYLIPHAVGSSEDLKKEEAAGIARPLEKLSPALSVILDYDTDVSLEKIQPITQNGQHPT

As to `COc1ccccc1CN[C@H]1C2CCN(CC2)[C@H]1C(c1ccccc1)c1ccccc1` (relative stereo) [BIBO 2020, ±cis-3-(2-methoxybenzylamino)-2-benzhydrylquinulidine], the “inhibition of the agonistic effect of neurokinin A” value in data set [1] is reported as “effective at higher concentrations (P7492>BIBO 2020>H-9290)”.

As to `CN1CCc2cc(Cl)c(O)cc2[C@@H](c2ccccc2)C1` [SCH23390], the “prevention of agonist-mediated induction (CRE)” value in data set [2] (1 μM apomorphine and 1 μM SCH23390) was “prevented”.

In the case of `CN1CCc2cccc3c2[C@H]1Cc1ccc(O)c(O)c1-3` [apomorphine], the “change in luciferase expression/activity” value in the data set on cell line CHO C6-13 was “did not bring about any significant change in the luciferase activity”. In addition, the “increase in luciferase activity, clone CHO 13D1-38” value in data set [3] (10 μM apomorphine, 4 hours) is listed as “highest increase in luciferase activity”. Also, the “concentration which brings about maximum induction of the luciferase reporter gene” value in data set [3] (apomorphine final concentration) was 1 µM. In addition, in data set [3] (apomorphine, FIG. 37A), the “time after stimulation at which increased luciferase activity was measured” value is listed as “one”, the “time to maximum luciferase activation” value was found to be 2.5 h and the “time up to which luciferase activation remained constant” value was found to be 4 h. In addition, the “dependency of ED50 values on duration of receptor stimulation” value in data set [3] (apomorphine, FIG. 37B) is listed as “no significant dependency”. For the same compound, the “induction of luciferase expression (CRE)” value in [2] (COS-7, 20 μM forskolin or 1 μM apomorphine, 18 h) is “induced by forskolin and by apomorphine”. For the same compound, the “induction of luciferase expression (TRE)” value in data set [4] was “not by apomorphine”.

In the case of `CC(C)C[C@H]1C(=O)N2CCC[C@H]2[C@]2(O)O[C@](NC(=O)[C@@H]3C=C4c5cccc6[nH]c(Br)c(c56)C[C@H]4N(C)C3)(C(C)C)C(=O)N12` [bromocryptin], in the data set with cell line CHO C6-13, the “change in luciferase expression/activity” value is listed as “did not bring about any significant change in the luciferase activity”. Further, the “luciferase induction at the highest concentration (attributed to cell toxicity or low pH)” value in [3] (100 μM bromocryptin) is “reversal of luciferase induction”. The “activity on luciferase induction” value in [3] (FIG. 38B) is “dosage-dependent activity”.

For `O=C(c1ccc(F)cc1)C1CCN(CCn2c(=O)[nH]c3ccccc3c2=O)CC1` [ketanserin-tartrate], the “prevention of agonist-mediated induction” value at human 5HT2-receptor [5] (10 μM α-methylserotonin-maleate and 10 μM ketanserin-tartrate) is reported as “prevented”.

For `NCCc1c[nH]c2ccc(O)cc12` [serotonin], in the data set on cell line CHO C6-13, the “change in luciferase expression/activity” value is “did not bring about any significant change in the luciferase activity”. In addition, the “induction of luciferase activity by receptor agonists in pretest cell line A20” value (shortened to “induction of luciferase activity”) in the data set with cell line A20 was “could not be induced”. The “selectivity of dosage-activity curves” value on human 5HT2-receptor [6] is on record as “selective for serotonin”. The “induction time up to which luciferase activity increases continuously” value at human 5HT2-receptor [6] (serotonin 1 μM) is 6 h.

As for `O=C(CCCN1CCC2(CC1)C(=O)NCN2c1ccccc1)c1ccc(F)cc1` [spiperone], at human 5HT2-receptor [6] (constant serotonin (1 μg), increasing antagonist, FIG. 32B), the “inhibition of the agonistic activity of serotonin” value is “able to be inhibited”.

On to `CC(N)Cc1c[nH]c2ccc(O)cc12` (stereo not drawn) [α-methylserotonin-maleate], for which the “induction of luciferase expression (CRE)” value on human 5HT2-receptor [7] is given as “not by the 5-HT2-receptor-agonist α-methylserotonin-maleate”. For the same compound, the “induction of luciferase expression (TRE)” value on human 5HT2-receptor [5] (COS-7, 10 ng/ml TPA or 10 μg α-methylserotonin-maleate, 18 h) is “induced both by TPA and by α-methylserotonin-maleate”. Also, at human 5HT2-receptor [6] (read-out: induction of luciferase activity, clone A20/5HT2-11), the fold induction at 10 µM was 4 to 5.

In the case of “neurokinin A: neurokinin (Sigma), agonist at neurokinin 2-receptor (HKTDSFVGLM-NH2; ends and bridges not checked; UniProt P20366 98-107, looked up)”, the “induction of luciferase activity” value in the data set on cell line A20 was “could not be induced by any of the three tachykinins”.

For the compound “neuromedin K (NMK): neurokinin (Sigma), tachykinin”, the “induction of luciferase activity” value in the data set on cell line A20 is “could not be induced by any of the three tachykinins”. Moreover, the “relative effectiveness of the neurokinins” value in [1] (dosage activity curves, FIG. 29A) is given as “NKA>neuromedin K (NMK)>substance P (SP)”.

Consider “substance P (SP): neurokinin (Sigma), tachykinin (RPKPQQFFGLM-NH2; ends and bridges not checked; UniProt P20366 58-68, looked up)”, for which the “induction of luciferase activity” value in the data set with cell line A20 is “could not be induced by any of the three tachykinins”.
